Assay results as given in paper PMC7763331, “First Evidence of a Protective Effect of Plant Bioactive Compounds against H2O2-Induced Aconitase Damage in Durum Wheat Mitochondria” (Antioxidants, 2020).
One block for each compound: values may come before it.

How the values were obtained:
m-aconitase [1] = target: T1, m-aconitase (Sus scrofa, UniProt P16276); test: aconitase/isocitrate dehydrogenase coupled assay, NADPH absorbance at […] nm; type: biochemical; settings: pH 8.0, 25 °C, 20 mM citrate; 10 min pre-incubation, no H2O2; activator, upper limit (up to about)
T1 construct: gene ACO2
T1 sequence (P16276 28-781): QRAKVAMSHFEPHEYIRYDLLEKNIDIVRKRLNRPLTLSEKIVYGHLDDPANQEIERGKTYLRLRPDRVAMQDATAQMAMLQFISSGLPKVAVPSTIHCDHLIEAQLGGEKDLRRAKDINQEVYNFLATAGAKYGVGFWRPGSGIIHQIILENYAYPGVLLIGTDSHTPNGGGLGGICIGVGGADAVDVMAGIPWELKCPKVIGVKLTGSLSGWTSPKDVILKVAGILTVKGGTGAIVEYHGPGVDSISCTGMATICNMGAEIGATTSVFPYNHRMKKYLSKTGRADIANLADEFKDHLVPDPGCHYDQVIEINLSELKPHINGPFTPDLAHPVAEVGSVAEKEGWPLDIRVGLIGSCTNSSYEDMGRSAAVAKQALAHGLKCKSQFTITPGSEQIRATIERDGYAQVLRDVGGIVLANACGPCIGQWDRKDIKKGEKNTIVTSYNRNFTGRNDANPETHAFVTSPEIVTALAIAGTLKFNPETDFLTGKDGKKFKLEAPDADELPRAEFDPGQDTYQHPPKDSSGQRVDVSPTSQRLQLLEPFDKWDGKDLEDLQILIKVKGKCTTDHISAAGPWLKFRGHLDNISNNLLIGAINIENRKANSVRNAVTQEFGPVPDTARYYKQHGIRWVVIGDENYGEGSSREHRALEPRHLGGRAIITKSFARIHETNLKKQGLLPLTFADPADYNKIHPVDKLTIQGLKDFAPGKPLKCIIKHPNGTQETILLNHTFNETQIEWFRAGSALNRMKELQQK

m-aconitase [2] = target: T1, m-aconitase; test: as above; type: biochemical; settings: pH 8.0, 25 °C, 20 mM citrate; 10 min pre-incubation, no H2O2; activator, upper limit (up to about); remark: listed apart in the source
DWM-aconitase = test system: T2, DWM-aconitase; settings: 100 mM Tris-HCl pH 8.0, 0.1% Triton X-100, 25 °C, 1 mM NADP+, 5 mM MnCl2; citrate 0.5–20 mM; lysed mitochondria
T2 construct: gene ACO

m-aconitase [3] = target: T1, m-aconitase; test: aconitase/isocitrate dehydrogenase coupled assay, NADPH absorbance at […] nm; type: biochemical; settings: pH 8.0, 25 °C, 20 mM citrate; 10 min pre-incubation, no H2O2; activator

Structure (SMILES): O=c1c(O)c(-c2ccc(O)c(O)c2)oc2cc(O)cc(O)c12 [quercetin]
% activation at 150 μM (m-aconitase [1]): ~ 20%

% activation at 100-150 μM (m-aconitase [2]): ~ 10%
Structure (SMILES): COc1cc(/C=C/C(=O)O)ccc1O [ferulic acid]

Structure (SMILES): O=C(O)CC(O)(CC(=O)O)C(=O)O [citrate]
Km (DWM-aconitase): 4.8 ± 0.9 mM

% activation at 50-150 μM (m-aconitase [3]): ~ 10%
Structure (SMILES): O=c1cc(-c2ccc(O)cc2)oc2cc(O)cc(O)c12 [apigenin]
